Measured values from patent publication US20180044343A1, “BICYCLIC IMIDAZOLO DERIVATIVE” (Sumitomo Dainippon Pharma Co., Ltd., priority 2015, published 2018).
pIC50: −log10 of the molar value.

These molecules were tested against PDE1B (Homo sapiens, UniProt Q01064) (assay: In vitro HTRF PDE1 inhibition assay (PDE1B)). Conditions: in vitro PDE1B HTRF Assay; read-out: IC50.
Format: biochemical

Sequence of PDE1B (Q01064 whole entry): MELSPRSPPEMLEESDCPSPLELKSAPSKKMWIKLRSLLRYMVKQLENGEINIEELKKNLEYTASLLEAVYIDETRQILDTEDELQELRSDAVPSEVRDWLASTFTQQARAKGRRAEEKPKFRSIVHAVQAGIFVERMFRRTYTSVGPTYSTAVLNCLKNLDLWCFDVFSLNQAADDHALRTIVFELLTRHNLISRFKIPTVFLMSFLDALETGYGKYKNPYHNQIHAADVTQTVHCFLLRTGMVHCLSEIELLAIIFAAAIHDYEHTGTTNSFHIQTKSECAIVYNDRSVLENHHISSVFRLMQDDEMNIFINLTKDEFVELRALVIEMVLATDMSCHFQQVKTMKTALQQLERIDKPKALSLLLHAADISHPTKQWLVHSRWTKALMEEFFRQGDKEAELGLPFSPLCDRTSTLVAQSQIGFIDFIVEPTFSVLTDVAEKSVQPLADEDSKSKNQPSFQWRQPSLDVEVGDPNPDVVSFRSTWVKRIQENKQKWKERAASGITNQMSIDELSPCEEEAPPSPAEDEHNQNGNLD

Cc1ccc([C@H]2CCCN2c2nn3c(C(C)C)ncc3c(=O)n2C)nc1 [Example 218, 3-Methyl-2-[(2R)-2-(5-methylpyridin-2-yl)pyrrolidin-1-yl]-7-(propan-2-yl)imidazo[5,1-f][1,2,4]triazin-4(3H)-one] and Cc1ccc([C@@H]2CCCN2c2nn3c(C(C)C)ncc3c(=O)n2C)nc1 [Example 219, 3-Methyl-2-[(2S)-2-(5-methylpyridin-2-yl)pyrrolidin-1-yl]-7-(propan-2-yl)imidazo[5,1-f][1,2,4]triazin-4(3H)-one] cannot be ordered by pIC50: > 6.00 for the first, > 6.00 for the second.

Cn1c(OCCCc2cccnc2)nn2c(C3CCOCC3)ncc2c1=O [Example 46] and Cn1c(OCCCc2ncccc2F)nn2c(C3CCOCC3)ncc2c1=O [Example 43] cannot be ordered by pIC50: > 6.00 for the first, > 6.00 for the second.

CCn1c(OCC2CCCC2)nn2c(C3CCOCC3)ncc2c1=O [Example 88] and CCn1c(OC[C@H]2CC[C@@H](OC)CC2)nn2c(C3CCOCC3)ncc2c1=O [Example 90] cannot be ordered by pIC50: > 6.00 for the first, > 6.00 for the second.

Cn1c(OCc2ccc(OC(F)(F)F)cc2)nn2c(C3CCOCC3)ncc2c1=O [Example 293] and Cn1c(OCc2cccc(F)c2)nn2c(C3CCOCC3)ncc2c1=O [Example 40] cannot be ordered by pIC50: > 6.00 for the first, > 6.00 for the second.

CCn1c(OCC2CC(F)(F)C2)nn2c(C3CCOCC3)ncc2c1=O [Example 87] and Cn1c(OCC2CC(F)(F)C2)nn2c(C3CCOCC3)ncc2c1=O [Example 33] cannot be ordered by pIC50: > 6.00 for the first, > 6.00 for the second.

First: COc1nn2c(C3CCOCC3)ncc2c(=O)n1Cc1ccc(C)cc1 [Example 264]
Second: COc1nn2c(C3CCOCC3)ncc2c(=O)n1Cc1ccc(C#N)cc1 [Example 280]
The pIC50 of the first is higher: > 6.00 for the first, 4.00 to 5.00 for the second. The first is the more potent here.

CCn1c(OCc2ccc(-c3ccc(Cl)cc3)cc2)nn2c(C3CCOCC3)ncc2c1=O [Example 79] and CCn1c(OCc2ccc(-c3ccc(C#N)cc3)cc2)nn2c(C3CCOCC3)ncc2c1=O [Example 85] cannot be ordered by pIC50: > 6.00 for the first, > 6.00 for the second.

Cn1c(OC[C@H]2CC[C@H](C(F)(F)F)CC2)nn2c(C3(O)CCCCC3)ncc2c1=O [Example 327, 7-(1-Hydroxycyclohexyl)-3-methyl-2-{[trans-4-(trifluoromethyl)cyclohexyl]-methoxy}imidazo[5,1-f][1,2,4]triazin-4(3H)-one] and Cn1c(OC[C@H]2CC[C@H](C(F)(F)F)CC2)nn2c(C3=CCCCC3)ncc2c1=O [Example 329, 7-(Cyclohex-1-en-1-yl)-3-methyl-2-{[trans-4-(trifluoromethyl)cyclohexyl]-methoxy}imidazo[5,1-f][1,2,4]triazin-4(3H)-one] fall in the same range of pIC50: 5.00 to 6.00 for the first, 5.00 to 6.00 for the second.

O=c1c2cnc(C3CCOCC3)n2nc(OCC2CCC(F)(F)CC2)n1CC1CCC(F)(F)CC1 [Example 104] and CCOc1nn2c(C3CCOCC3)ncc2c(=O)n1CC1CCC(F)(F)CC1 [Example 102] cannot be ordered by pIC50: > 6.00 for the first, > 6.00 for the second.

CC(C)c1ncc2c(=O)n(C)c(NC3CCCc4cc(C#N)ccc43)nn12 (centres unmarked) [Example 148] and CC(C)c1ncc2c(=O)n(C)c(NC3CCCc4cc(Cl)ccc43)nn12 (centres unmarked) [Example 147] cannot be ordered by pIC50: > 6.00 for the first, > 6.00 for the second.

CCn1c(OCC2CCC(OC(F)(F)F)CC2)nn2c(C3CCOCC3)ncc2c1=O (centres unmarked) [Example 285] and Cn1c(OCC2CCC(OC(F)(F)F)CC2)nn2c(C3CCOCC3)ncc2c1=O (centres unmarked) [Example 284] cannot be ordered by pIC50: > 6.00 for the first, > 6.00 for the second.

Cn1c(OC[C@H]2CC[C@@H](C(F)(F)F)CC2)nn2c(C3CCOCC3)ncc2c1=O [Example 248, 3-methyl-7-(tetrahydro-2H-pyran-4-yl)-2-{[cis-4-(trifluoromethyl)cyclohexyl]methoxy}-imidazo[5,1-f][1,2,4]triazin-4(3H)-one] and Cn1c(O[C@H]2CC[C@H](C(F)(F)F)CC2)nn2c(C3CCOCC3)ncc2c1=O [Example 305, 3-methyl-7-(tetrahydro-2H-pyran-4-yl)-2-{[trans-4-(trifluoromethyl)cyclohexyl]oxy}-imidazo[5,1-f][1,2,4]triazin-4(3H)-one] cannot be ordered by pIC50: > 6.00 for the first, > 6.00 for the second.

CCOC[C@H]1CC[C@@H](Oc2nn3c(C4CCOCC4)ncc3c(=O)n2C)CC1 [Example 320] and Cn1c(OC2CCC(F)(F)CC2)nn2c(C3CCOCC3)ncc2c1=O [Example 303] cannot be ordered by pIC50: > 6.00 for the first, > 6.00 for the second.

Compared with CC(C)c1ncc2c(=O)[nH]c(N3CCCC3c3ccc(Cl)cc3)nn12 (centres unmarked) [Example 134], CC(C)c1ncc2c(=O)[nH]c(N3CCC[C@H]3c3ccccc3)nn12 [Example 131] is lower in pIC50: > 6.00 for the first, 5.00 to 6.00 for the second. The first is the more potent here.

COc1nn2c(C3CCOCC3)ncc2c(=O)n1CC1CC1 [Example 272] and Cc1nn2c(C3CCOCC3)ncc2c(=O)n1CC1CCC(F)(F)CC1 [Example 237, 3-[(4,4-Difluorocyclohexyl)methyl]-2-methyl-7-(tetrahydro-2H-pyran-4-yl)imidazo[5,1-f][1,2,4]triazin-4(3H)-one] cannot be ordered by pIC50: > 6.00 for the first, > 6.00 for the second.

First: COc1nn2c(C3CCOCC3)ncc2c(=O)n1Cc1ccc(F)cn1 [Example 269]
Second: COc1nn2c(C3CCOCC3)ncc2c(=O)n1Cc1ccccn1 [Example 268]
The pIC50 of the first is higher: > 6.00 for the first, 5.00 to 6.00 for the second. The first is the more potent here.

First: O=c1c2cnc(C3CCOCC3)n2nc(N2CCCC2)n1CC1CCC1 [Example 211]
Second: O=c1c2cnc(C3CCOCC3)n2nc(N2CCCC2)n1CC1CCCCC1 [Example 213]
The pIC50 of the first is lower: 4.00 to 5.00 for the first, 5.00 to 6.00 for the second. The second is the more potent here.

Cc1ccc(-c2nn3c(C4CCOCC4)ncc3c(=O)n2C)cc1 [Example 236, 3-Methyl-2-(4-methylphenyl)-7-(tetrahydro-2H-pyran-4-yl)imidazo[5,1-f][1,2,4]triazin-4(3H)-one] and Cn1c(/C=C/c2ccc(F)cc2)nn2c(C3CCOCC3)ncc2c1=O [Example 240, 2-[(E)-2-(4-Fluorophenyl)ethenyl]-3-methyl-7-(tetrahydro-2H-pyran-4-yl)imidazo[5,1-f][1,2,4]triazin-4(3H)-one] cannot be ordered by pIC50: > 6.00 for the first, > 6.00 for the second.

CCn1c(OCCCc2cccc(C)n2)nn2c(C3CCOCC3)ncc2c1=O [Example 72] and CCn1c(OCCc2ccncc2)nn2c(C3CCOCC3)ncc2c1=O [Example 60] cannot be ordered by pIC50: > 6.00 for the first, > 6.00 for the second.

Cn1c(CN2C(=O)c3ccccc3C2=O)nn2c(C3CCCC3)ncc2c1=O [Example 234] and Cn1c(CCc2ccccn2)nn2c(C3CCOCC3)ncc2c1=O [Example 244, 3-Methyl-2-[2-(pyridin-2-yl)ethyl]-7-(tetrahydro-2H-pyran-4-yl)imidazo[5,1-f][1,2,4]triazin-4(3H)-one] cannot be ordered by pIC50: > 6.00 for the first, > 6.00 for the second.

Cn1c(OCC23CC4CC(CC(C4)C2)C3)nn2c(C3CCOCC3)ncc2c1=O [Example 298] and Cn1c(OCCC2(C(F)(F)F)CC2)nn2c(C3CCOCC3)ncc2c1=O [Example 282] cannot be ordered by pIC50: > 6.00 for the first, > 6.00 for the second.

Compared with COc1nn2c(C(C)C)ncc2c(=O)n1Cc1ccccn1 [Example 262], CC(C)c1ncc2c(=O)n(C)c(N(C)Cc3ccccn3)nn12 [Example 163] is lower in pIC50: > 6.00 for the first, 5.00 to 6.00 for the second. The first is the more potent here.

Compared with COCCN1CCN(c2nn3c(C4CCOCC4)ncc3c(=O)n2C)CC1 [Example 186], COCC(=O)N1CCCN(c2nn3c(C4CCOCC4)ncc3c(=O)n2C)CC1 [Example 221, 2-[4-(Methoxyacetyl)-1,4-diazepan-1-yl]-3-methyl-7-(tetrahydro-2H-pyran-4-yl)imidazo[5,1-f][1,2,4]triazin-4(3H)-one] is lower in pIC50: > 6.00 for the first, 5.00 to 6.00 for the second. The first is the more potent here.

CC(C)c1ncc2c(=O)n(C)c(NCc3ccc(Cl)cc3F)nn12 [Example 146] and Cc1cccc(CNc2nn3c(C(C)C)ncc3c(=O)n2C)n1 [Example 137, 3-Methyl-2-{[(6-methylpyridin-2-yl)methyl]amino}-7-(propan-2-yl)imidazo[5,1-f][1,2,4]triazin-4(3H)-one] cannot be ordered by pIC50: > 6.00 for the first, > 6.00 for the second.

CCn1c(OCc2ccc(-c3ccc(C(F)(F)F)cc3)cc2)nn2c(C3CCOCC3)ncc2c1=O [Example 84] and CCn1c(OCCc2ccc(C(F)(F)F)cc2)nn2c(C3CCOCC3)ncc2c1=O [Example 78] cannot be ordered by pIC50: > 6.00 for the first, > 6.00 for the second.

CCn1c(OCC2(c3ccc(Cl)cc3)CC2)nn2c(C3CCOCC3)ncc2c1=O [Example 76] and CCn1c(OCc2cc(F)ccc2F)nn2c(C3CCOCC3)ncc2c1=O [Example 57] cannot be ordered by pIC50: > 6.00 for the first, > 6.00 for the second.

First: CCCn1c(N2CCCC2)nn2c(C3CCOCC3)ncc2c1=O [Example 199]
Second: COCCn1c(N2CCCC2)nn2c(C3CCOCC3)ncc2c1=O [Example 210]
The pIC50 of the first is higher: > 6.00 for the first, 4.00 to 5.00 for the second. The first is the more potent here.

O=c1c2cnc(C3CCOCC3)n2nc(N2CCCC2)n1Cc1ccc(Cl)cc1 [Example 203] and O=c1c2cnc(C3CCOCC3)n2nc(N2CCCC2)n1Cc1ccccc1 [Example 202] cannot be ordered by pIC50: > 6.00 for the first, > 6.00 for the second.

CCn1c(OCc2cccnc2)nn2c(C(C)C)ncc2c1=O [Example 19] and CCn1c(NCc2ccc(C)nc2)nn2c(C(C)C)ncc2c1=O [Example 176] cannot be ordered by pIC50: > 6.00 for the first, > 6.00 for the second.

Compared with CC(C)Cn1c(N2CCCC2)nn2c(C3CCOCC3)ncc2c1=O [Example 208], Cn1c(N2CCOCC2)nn2c(C3CCOCC3)ncc2c1=O [Example 185] is higher in pIC50: 5.00 to 6.00 for the first, > 6.00 for the second. The second is the more potent here.

Cn1c(NCCc2ccccn2)nn2c(C3CCOCC3)ncc2c1=O [Example 182] and O=c1[nH]c(N2CCCC2c2ccccc2Cl)nn2c(C3CCOCC3)ncc12 (centres unmarked) [Example 127] cannot be ordered by pIC50: > 6.00 for the first, > 6.00 for the second.

CC(C)c1ncc2c(=O)n(C)c(NCc3ccccc3)nn12 [Example 139] and CC(C)c1ncc2c(=O)n(C)c(NCc3ccc(C#N)cc3)nn12 [Example 142] cannot be ordered by pIC50: > 6.00 for the first, > 6.00 for the second.

CC(C)c1ncc2c(=O)n(C)c(OCCc3ccncc3)nn12 [Example 3, 3-Methyl-7-(propan-2-yl)-2-[2-(pyridin-4-yl)ethoxy]imidazo[5,1-f][1,2,4]triazin-4(3H)-one] and CC(C)c1ncc2c(=O)n(C)c(NCc3ccc(C#N)cn3)nn12 [Example 158] cannot be ordered by pIC50: > 6.00 for the first, > 6.00 for the second.

Compared with COC(C)c1ncc2c(=O)n(C)c(OCC3CCC(F)(F)CC3)nn12 (centres unmarked) [Example 112], CC(C)c1ncc2c(=O)n(C)c(N3CCC[C@@H]3c3ccc(C#N)cc3)nn12 [Example 167] is lower in pIC50: > 6.00 for the first, 5.00 to 6.00 for the second.

O=c1[nH]c(N2CCCC2c2ccc(Cl)cc2)nn2c(C3CCOCC3)ncc12 (centres unmarked) [Example 129] and CCn1c(O[C@H]2CC[C@@H](C(F)(F)F)CC2)nn2c(C3CCOCC3)ncc2c1=O [Example 308] cannot be ordered by pIC50: > 6.00 for the first, > 6.00 for the second.

Molecule CCn1c(NCc2ncccc2C)nn2c(C(C)C)ncc2c1=O [Example 173] has a pIC50 of 5.00 to 6.00.
